Consider 3 compounds from ChEMBL document CHEMBL5029167, “Development of Asialoglycoprotein-Mediated Hepatocyte-Targeting Antitumor Prodrugs Triggered by Glutathione” (J Med Chem, 2021).

Series [1] can be described thus: Stability of compound in GSH measured upto 24 hrs. In kind it is physicochemical. To be noted: GSH (glutathione), read-out: Stability.
A short description of series [2]: Toxicity in Kunming mouse implanted with mouse H22 cells assessed as change in organ weight at 0.8 mg/kg after 7 days. In kind it is organism-based. To be noted: in vivo, 168 h, time 7 day.
In series [3] the test system is H22. Put plainly: Antitumor activity against mouse H22 cells implanted in Kunming mouse assessed as tumor growth inhibition at 0.8 mg/kg measured on day 7. In kind it is functional. Also noted: scale not given: the % may be the effect or the level left. To be noted: time 7 day.
Series [4] is described as follows: Toxicity in Kunming mouse implanted with mouse H22 cells assessed as change in body weight at 0.8 mg/kg after 7 days. To be noted: in vivo, 168 h, time 7 day. In kind it is organism-based.
Series [5] can be described thus: Drug uptake in human A549 cells at 10 uM after 15 mins by confocal scanning microscopic analysis. In kind it is ADME, cell-based. To be noted: a549, 0.25 h.
Series [6] is described as follows: Drug uptake in human SGC-7901 cells at 10 uM after 15 mins by confocal scanning microscopic analysis. In kind it is ADME, cell-based. To be noted: sgc-7901, 0.25 h.
Series [7] can be described thus: Drug uptake in human HeLa cells at 10 uM after 15 mins by confocal scanning microscopic analysis. The format is ADME, cell-based. To be noted: 0.25 h.
Series [8] can be described thus: Drug uptake in human HepG2 cells at 10 uM after 15 mins by confocal scanning microscopic analysis. The format is ADME, cell-based. Conditions: hepg2, 0.25 h; call rule not given here.
The nature of series [9]: Drug distribution in Kunming mouse liver at 6 mg/kg, iv measured after 3 hrs by confocal scanning microscopic analysis. In kind it is ADME, organism-based. To be noted: in vivo.
A short description of series [10]: Drug uptake in human HepG2 cells pretreated with galactose for 30 mins followed by compound addition and measured after 15 mins by confocal scanning microscopic analysis. In kind it is ADME, cell-based. Conditions: hepg2, 0.75 h, time 45 min.

Consider `C=C[C@]1(C)CC[C@@H](C(=C)Cn2cc(CN3C(=O)c4cccc5c(N6CCN(C(=O)OCCCCCCOCc7cn([C@@H]8O[C@H](CO)[C@H](O)[C@H](O)[C@H]8O)nn7)CC6)ccc(c45)C3=O)nn2)C[C@H]1C(=C)C`, for which the remaining at 24 h in series [1] amounted to 99%.

For `O=c1[nH]cc(F)c(=O)[nH]1` [FLUOROURACIL], the Activity result in [2] is “Non-Toxic”; in series [3] it was 26.41%; in [4], “Non-Toxic”.

Take `C=C[C@]1(C)CC[C@@H](C(=C)Cn2cc(CN3C(=O)c4cccc5c(N6CCN(C(=O)OCCSSCCOCc7cn([C@@H]8O[C@H](CO)[C@H](O)[C@H](O)[C@H]8O)nn7)CC6)ccc(c45)C3=O)nn2)C[C@H]1C(=C)C`: the Drug uptake result is listed as “Active” in series [5]; “Active” in [6]; “Active” in series [7]; “Active” in series [8]; “Active” in [9]; “Not Active” in series [10].
